Data: ChEMBL document CHEMBL4321852, “Structure-Based and Property-Driven Optimization of N-Aryl Imidazoles toward Potent and Selective Oral RORγt Inhibitors” (J Med Chem, 2019)
The source made the active and inactive calls. The rule behind the calls is not given here.

Key:
[1] = Dose normalized AUC in Sprague-Dawley rat at 1 mg/kg, iv; assay type: ADME, organism-based; conditions: in vivo
[2] = Tmax in DA rat at 5 mg/kg, po; assay type: ADME, organism-based; conditions: in vivo
[3] = target: T1, Retinoic acid receptor RXR-alpha (Homo sapiens, UniProt P19793); experiment: Inhibition of Gal4-tagged RXRalpha LBD (unknown origin) by cell based luciferase reporter gene assay
T1 sequence (P19793 whole entry): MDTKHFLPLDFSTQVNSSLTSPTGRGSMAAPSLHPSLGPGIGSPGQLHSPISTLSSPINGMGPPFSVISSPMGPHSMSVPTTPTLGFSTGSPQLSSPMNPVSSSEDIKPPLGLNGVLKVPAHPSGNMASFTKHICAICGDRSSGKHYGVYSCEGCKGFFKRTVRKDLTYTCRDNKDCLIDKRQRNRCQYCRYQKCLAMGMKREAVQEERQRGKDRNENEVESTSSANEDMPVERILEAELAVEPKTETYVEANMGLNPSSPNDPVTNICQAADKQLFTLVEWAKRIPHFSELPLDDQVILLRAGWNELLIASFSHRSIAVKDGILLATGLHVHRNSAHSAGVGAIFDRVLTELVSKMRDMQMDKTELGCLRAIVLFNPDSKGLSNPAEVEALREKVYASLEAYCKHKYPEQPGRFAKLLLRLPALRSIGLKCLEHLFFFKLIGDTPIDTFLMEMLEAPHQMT

Glucocorticoid receptor = target: T2, Glucocorticoid receptor (Homo sapiens, UniProt P04150); experiment: Inhibition of Gal4-tagged GR LBD (unknown origin) by cell based luciferase reporter gene assay
T2 sequence (P04150 whole entry): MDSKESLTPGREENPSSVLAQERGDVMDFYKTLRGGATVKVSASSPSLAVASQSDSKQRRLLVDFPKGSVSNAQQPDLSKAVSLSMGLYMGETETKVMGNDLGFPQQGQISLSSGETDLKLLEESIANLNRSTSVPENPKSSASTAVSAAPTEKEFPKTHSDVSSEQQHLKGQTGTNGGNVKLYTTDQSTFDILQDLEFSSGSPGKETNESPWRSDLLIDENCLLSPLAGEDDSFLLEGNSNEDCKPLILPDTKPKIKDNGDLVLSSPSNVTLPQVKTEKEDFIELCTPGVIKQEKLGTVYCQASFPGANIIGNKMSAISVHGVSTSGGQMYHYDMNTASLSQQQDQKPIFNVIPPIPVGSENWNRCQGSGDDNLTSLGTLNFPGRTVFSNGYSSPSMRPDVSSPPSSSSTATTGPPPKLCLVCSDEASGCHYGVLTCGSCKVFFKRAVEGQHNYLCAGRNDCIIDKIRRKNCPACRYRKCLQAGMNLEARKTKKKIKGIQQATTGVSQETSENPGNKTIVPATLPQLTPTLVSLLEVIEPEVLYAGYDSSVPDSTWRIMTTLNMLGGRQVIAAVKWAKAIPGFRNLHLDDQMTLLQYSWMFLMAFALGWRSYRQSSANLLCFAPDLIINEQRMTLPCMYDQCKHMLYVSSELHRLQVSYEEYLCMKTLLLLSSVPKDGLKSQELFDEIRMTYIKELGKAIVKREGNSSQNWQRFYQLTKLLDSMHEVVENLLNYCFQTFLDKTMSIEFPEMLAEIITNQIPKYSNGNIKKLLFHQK

Vitamin D3 receptor = target: T3, Vitamin D3 receptor (Homo sapiens, UniProt P11473); experiment: Inhibition of Gal4-tagged VDR LBD (unknown origin) by cell based luciferase reporter gene assay
T3 sequence (P11473 whole entry): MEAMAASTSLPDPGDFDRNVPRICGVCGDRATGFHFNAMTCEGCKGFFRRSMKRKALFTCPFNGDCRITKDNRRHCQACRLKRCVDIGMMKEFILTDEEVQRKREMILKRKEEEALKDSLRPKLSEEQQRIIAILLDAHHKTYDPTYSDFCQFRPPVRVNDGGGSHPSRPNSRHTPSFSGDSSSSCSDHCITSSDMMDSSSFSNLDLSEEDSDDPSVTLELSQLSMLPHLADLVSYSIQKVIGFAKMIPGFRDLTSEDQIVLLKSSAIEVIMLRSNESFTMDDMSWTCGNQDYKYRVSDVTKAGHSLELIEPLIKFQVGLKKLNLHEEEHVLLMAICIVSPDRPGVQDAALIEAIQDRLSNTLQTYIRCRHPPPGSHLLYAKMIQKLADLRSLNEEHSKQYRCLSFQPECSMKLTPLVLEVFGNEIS

Cytochrome P450 3A4 = Cytochrome P450 3A4 (Homo sapiens, UniProt P08684); experiment: Time dependent inhibition of CYP3A4 (unknown origin); assay type: ADME; parameters: concentration or dose not given beside the values
Rattus norvegicus [4] = experiment: Anti-inflammatory activity in mBSA/CFA-immunized Lewis rat delayed-type hypersensitivity model assessed as reduction in ear swelling at 1 mg/kg, po via gavage administered twice daily for 2 days treated prior to mBSA/CFA challenge measured after up to 50 hrs; assay type: functional, organism-based
Rattus norvegicus [5] = experiment: Anti-inflammatory activity in mBSA/CFA-immunized Lewis rat delayed-type hypersensitivity model assessed as reduction in frequencies of IL-17-producing draining lymph node cells at 1 to 15 mg/kg, po via gavage administered twice daily for 2 days treated prior to mBSA/CFA challenge; assay type: functional, organism-based
Rattus norvegicus [6] = experiment: Anti-inflammatory activity in mBSA/CFA-immunized Lewis rat delayed-type hypersensitivity model assessed as reduction in frequencies of IL-17-producing draining lymph node cells at 1 to 15 mg/kg, po via gavage administered twice daily for 2 days treated prior to mBSA/CFA challenge relative to control; assay type: functional; parameters: scale not given: the % may be the effect or the level left

Sequence of Cytochrome P450 3A4 (P08684 whole entry): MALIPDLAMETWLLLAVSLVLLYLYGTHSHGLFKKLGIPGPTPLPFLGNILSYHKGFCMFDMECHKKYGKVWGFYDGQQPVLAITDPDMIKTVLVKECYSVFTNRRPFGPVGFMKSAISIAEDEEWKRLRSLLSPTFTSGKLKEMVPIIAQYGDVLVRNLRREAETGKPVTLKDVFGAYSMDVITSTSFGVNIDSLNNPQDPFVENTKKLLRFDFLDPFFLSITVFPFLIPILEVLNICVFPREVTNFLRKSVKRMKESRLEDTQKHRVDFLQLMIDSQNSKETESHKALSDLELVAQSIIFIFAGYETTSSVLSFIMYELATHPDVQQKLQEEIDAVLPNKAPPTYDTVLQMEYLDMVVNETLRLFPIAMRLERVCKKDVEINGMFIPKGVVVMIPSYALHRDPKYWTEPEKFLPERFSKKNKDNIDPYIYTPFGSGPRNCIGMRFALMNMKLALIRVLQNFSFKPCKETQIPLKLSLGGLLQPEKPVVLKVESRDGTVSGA

- AUC/dose [1]: 12680 nM·h
- Tmax [2]: 1 h
- IC50 [3]: > 10 µM
- IC50 (Glucocorticoid receptor): > 10 µM
- IC50 (Vitamin D3 receptor): > 10 µM
- K (Cytochrome P450 3A4): 0.005 min⁻¹
Structure (SMILES): Cc1c(C2(C(F)(F)F)CC2)nc(C2CC2)n1-c1c(Cl)ccc(N2CC3(CC(C(=O)O)C3)C2)c1Cl (single isomer, unassigned; atropisomer)
- Activity (Rattus norvegicus [4]): inactive
- Activity (Rattus norvegicus [5]): Dose-dependent effect
- Activity (Rattus norvegicus [6]): 50%
